Test results as given in PMC10740580, “Benzothiazole-Phthalimide Hybrids as Anti-Breast Cancer and Antimicrobial Agents” (Antibiotics, 2023).

System: BALB/3T3 cells
Assay: MTT assay, BALB/3T3 fibroblasts
Format: cell-based
Details: mouse fibroblasts, read-out: IC50 BALB/3T3 (MTT, lack of toxicity)
Experimental: Cells were treated for 24 h, and N-acetylcystein (NAC), a compound well-known for its antioxidant capacity, was used as a reference molecule. […] Compound 3h was able to reduce ROS formation by 61.4 ± 2% at the maximum concentration of 160 μM in the BALB/3T3 cells, as shown by the quantification of fluorescence intensity, proving compound 3h to be a good ROS scavenger.
The four cell lines used in this work (MCF-7, MDA-MB-231, MCF-10A, and 3T3-L1) were obtained from the American Type Culture Collection (ATCC, Manassas, VA, USA). All cell lines were maintained at 37 °C in a humidified atmosphere of 95% air and 5% CO2 and periodically screened for contamination. […]
Cell viability was evaluated by means of the 3-(4,5-dimethylthiazol-2-y1)-2,5-diphenyltetra zolium bromide (MTT, Sigma-Aldrich, Milan, Italy) assay. […] Cells were lysed with DMSO after 2 h of incubation at 37 °C, and optical density at 570 nm was then determined with a microplate reader. Using GraphPad Prism 9 software (GraphPad Inc., San Diego, CA, USA), the mean absorbance for each sample was expressed as a percentage over the control and plotted vs. drug concentrations to establish the IC50 values. […]

## O=C1c2ccccc2C(=O)N1c1nc2ccc(Oc3ccccc3)cc2s1 [3h, 2-[6-Phenoxy-1,3-benzothiazol-2-yl]-1H-isoindole-1,3(2H)-dione]
  IC50: > 200 µM
